Results: patent US20230123334A1, “AMINO LIPID COMPOUND, PREPARATION METHOD THEREFOR, AND APPLICATION THEREOF” (SHENZHEN SHENXIN BIOTECHNOLOGY CO., LTD., priority 2020, published 2023)

Test system: HEK293 cells
Assay: Preliminary screening as DNA vectors, GFP transfection of HEK293 cells
Format: cell-based
Conditions: amino lipid/DOPE liposome with 75 ng plasmid DNA (psin-EGFP-IRES-Puro); number of GFP-expressing cells divided by total nuclei (Hoechst)
Experimental: Cell line: HEK293 cells (ATCC CRL-1573™)
Medium: DMEM supplemented with 10% fetal bovine serum (Invitrogen)
Mode of screening: cell transfection on 96-well plates
Detection (readout): percentage of the number of GFP fluorescent cells relative to the total number of cells (the total number of cells was measured using nucleus dye Hoechst—see FIG. 2). Lipofectamine2000 (Invitrogen) was used as positive control, according to the manufacturer's instructions.
Method: an 8-channel pipette was used for sample addition. The contents shown were for a single well of a 96-well flat plate.
1. The compound (0.01 mmol) prepared in Example 1 was dissolved in 1 mL of anhydrous ethanol. After ultrasonically dissolved, 10 μL of the resultant amino lipid solution in ethanol was taken and mixed with 5 μL of DOPE solution in ethanol (0.01 m), and then to the obtained mixture was added 35 μL of 0.2M sodium acetate buffer (pH 5.6), and 50 μL of liposome solution was prepared by vortex at a constant rotating speed for 30 s. 4 μL was taken from the 50 μL liposome solution and added to 46 μL of 0.02M sodium acetate buffer (pH 5.6), and the final liposome solution was formed by vortex at a constant rotating speed for 30 s. 5 μL was taken from the final liposome solution and mixed with 75 ng plasmid DNA (psin-EGFP-IRES-Puro, Clontech) dissolved in 5 μL of 0.02 M sodium acetate buffer, and was allowed to stay at room temperature for 30 min to form a lipid/DNA transfection complex.
2. 10 μL of the lipid/DNA transfection complex was incubated at room temperature for 30 min, followed by addition of 90 μL of fresh resuspended cells (3-5×10^4 cells) and mixing with a pipette. 100 μL of cells+lipid/DNA complex was transferred to separate wells of a 96-well culture plate immediately, and placed in an incubator containing 5% CO2 at 37° C.
3. Hoechst33258 (Invitrogen) was added at a final concentration of 0.2 μg/mL to the cells 20 to 24 hours after initial cell transfection, and cultured in darkness at 37° C. for 15 min. Afterwards, the cells were washed once with a PBS solution, and then added with medium for culture for 20 to 24 h.
4. The cells were placed in a high-throughput confocal microscope (Molecular Devices ImageXpress), and four visual fields of the image of the cells were captured for each well, and images at three laser wavelengths were captured for each sample: bright field images of cells (FIG. 2(a) and FIG. 2(b)), Hoechst-staining images showing total nuclei (FIG. 2(c) and FIG. 2(d)) and GFP images showing success in transfection with the plasmid DNA and the expression of GFP (FIG. 2(e) and FIG. 2(f)). MetaXpress software was used to separately count the cells in the Hoechst-staining images and GFP images, and then the number of cells expressing GFP was divided by the total number of nuclei to give the absolute cell transfection efficiency. The absolute transfection efficiency was calculated as follows: […]

Compound	Absolute DNA transfection efficiency in HEK293 cells [%]
CCCCCCCNc1nc(NCCN2CCOCC2)nc(SCCCCCC)n1 [S6N7 D2]	0.0
CCCCCCCCCCCCNc1nc(NCC2CCN(C)CC2)nc(SCCCCCCCCC)n1 [S9N12 D10]	25.8
CCCCCCCCCCCCCCCCSc1nc(NCCCCCC)nc(NCCN2CCCC2)n1 [S16N6 D3]	35.3
CCCCCCCCCCCCCCCSc1nc(NCCCCCC)nc(NCCN2CCN(C)CC2)n1 [S15N6 D5]	14.9
CCCCCCCCCCCCCCCNc1nc(NCCN(C)C)nc(SCCCCCCCC)n1 [S8N15 D1]	8.0
CCCCCCCCCCCCCCCSc1nc(NCCN2CCCCC2)nc(N(CCCCCCCCCCCC)CCCCCCCCCCCC)n1 [S15^2N12 D4]	0.0
CCCCCCCCCCCCNc1nc(NCCN(C)C)nc(SCCCCCC)n1 [S6N12 D1]	4.7
CCCCCCCCCCCCCCCNc1nc(NCCN2CCOCC2)nc(SCCCCCCCCCCCCCC)n1 [S14N15 D2]	0.1
CCCCCCCCCCCNc1nc(NCCN2CCCC2)nc(SCCCCCCCCC)n1 [S9N11 D3]	43.4
CCCCCCCCCCCSc1nc(NCCCN2CCN(C)CC2)nc(SCCCCCCCC)n1 [S8S11 D9]	12.8
CCCCCCCCCCCCCCCSc1nc(NCCCCCCCCCCCC)nc(NCC2CCN(C)CC2)n1 [S15N12 D10]	4.3
CCCCCCCCCCSc1nc(NCCCCCC)nc(NCC2CCN(C)CC2)n1 [S10N6 D10]	0.9
CCCCCCCCCCCCCCCNc1nc(NCCN2CCN(C)CC2)nc(SCCCCCCCCCCCCCCC)n1 [S15N15 D5]	0.4
CCCCCCCCSc1nc(NCCCCCCC)nc(NCCN(C)C)n1 [S8N7 D1]	3.0
CCCCCCCCCCCCCCCCSc1nc(NCCCCCCCCCCCC)nc(NCCN2CCOCC2)n1 [S16N12 D2]	0.0
CCCCCCCSc1nc(NCCN2CCCCC2)nc(SCCCCCCC)n1 [S7S7 D4]	0.0
CCCCCCCCCCCCCCCSc1nc(NCCCCCCCCC)nc(NCCCN(C)C)n1 [S15N9 D6]	23.1
CCCCCCCCCCCCCCCNc1nc(NCC2CCN(C)CC2)nc(SCCCCCCCCCC)n1 [S10N15 D10]	6.9
CCCCCCCCCCCCCCCSc1nc(NCCCCCCCCCCCCC)nc(NCCN2CCCC2)n1 [S15N13 D3]	4.2
CCCCCCNc1nc(NCCN(C)C)nc(SCCCCCC)n1 [S6N6 D1]	0.1
CCCCCCCCCCCCCCSc1nc(NCCN(C)C)nc(N(CCCCCCCCCCCC)CCCCCCCCCCCC)n1 [S14^2N12 D1]	0.3
CCCCCCCCCCCCN(CCCCCCCCCCCC)c1nc(NCCN(C)C)nc(SCCCCCCCC)n1 [S8^2N12 D1]	0.0
CCCCCCCSc1nc(NCCCCCC)nc(NCCCN2CCN(C)CC2)n1 [S7N6 D9]	20.3
CCCCCCCCCCCNc1nc(NCCN(C)C)nc(SCCCCCC)n1 [S6N11 D1]	1.5
CCCCCCCCCCCCCCCSc1nc(NCCN(CC)CC)nc(SCCCCCCC)n1 [S7S15 D7]	5.0
CCCCCCCCCCCCCCCSc1nc(NCCCCCCCCCCCCC)nc(NCCN(CC)CC)n1 [S15N13 D7]	5.5
CCCCCCCCCCCCNc1nc(NCCN2CCOCC2)nc(SCCCCCCCCC)n1 [S9N12 D2]	13.0
CCCCCCCCCCCCCCCCNc1nc(NCCN2CCOCC2)nc(SCCCCCCCC)n1 [S8N16 D2]	2.9
CCCCCCCCCCCCNc1nc(NCCCN2CCN(C)CC2)nc(SCCCCCCCCCCCC)n1 [S12N12 D9]	5.1
